The results in this text go back to patent US20090137565A1, “Method for treatment of movement disorders” (The Trustees of Columbia University in the City of New York, priority 2004, published 2009).

The structures appear in SMILES notation.

This test deals with medication-refractory, ethanol-responsive ET. The test is described as follows: Twenty-patient open-label trial of sodium oxybate, blinded WHIGET (ET patients). Format: in vivo, human. The following applies: for Kinetic tremor score: dose 0 score 15.4; for Postural tremor score: dose 0 score 2.4. An excerpt:
Twenty patients age 18 or older were recruited from a clinical practice at the Movement Disorders Division of Columbia University Medical Center. Eligible patients with medication-refractory, ethanol-responsive myoclonus (6 PHM, 3 MD, 2 PME) or ET (9 patients) (Table 1) were offered enrollment from February 2004 to March 2005. The medical center's institutional review board approved the protocol, and written informed consent was obtained from all participants. All had myoclonus or ET that improved (by self-report) with ingestion of ethanol. All patients were medication-refractory, defined as obtaining inadequate benefit from best medical treatment or being unable to tolerate treatment. The dose and timing of other medications were kept constant before and during the trial.
Twelve men and 8 women enrolled. Results from patients #6, and #s 1, 2, 7, 12, and 13 were reported previously. Frucht, S. J., et al. Mov Disord 20:745-51 (2005); Frucht, S. J., et al. Mov Disord 20:1330-7 (2005). Mean age/symptom duration was 43.9 yrs/12.3 yrs (myoclonus) and 71.2 yrs/26.7 yrs (ET). Patients with myoclonus were examined and videotaped at each visit using the Unified Myoclonus Rating Scale (UMRS), and patients with ET were examined and videotaped using the modified Washington Heights Inwood Genetic Essential Tremor Rating Scale (WHIGET; Appendix 1). Frucht, S. J., et al. Mov Disord 20:1330-7 (2005). After initial baseline examination and videotaping, patients took 1 gm of sodium oxybate by mouth (2 ml of the standard 0.5 gm/ml solution dissolved in 60 ml of water), and one hour later the videotaped examination was repeated. Patients were maintained on a dose of 1 gm T.I.D. (taken before meals) until their next office visit two weeks later, when the examination and videotaping were repeated one hour after receiving 1.5 gm of sodium oxybate. Subsequent visits and dose titrations at two-week intervals were repeated until the maximum dose was reached (3 gm T.I.D), patients were satisfied with the results of treatment, or until they developed side effects that they viewed as troublesome. Dosing for patients #1, 2, 6, 7, 12, and 13 was slightly different (1 gm BID, with dose increments of 2 gm to maximum dose of 4 gm BID), but office visits and videotaping protocol were otherwise identical.
The entire videotape segments and writing samples from each visit were copied and randomly ordered, and identifying features that might reveal trial order or drug dose were removed. A blinded movement disorder neurologist scored each videotape segment using the UMRS or the WHIGET. Sub-scores for each visit were calculated as described previously. Frucht, S. J., et al. Mov Disord 20:1330-7 (2005). Based on data from the first two ET cases, and assuming alpha=0.05, power=80%, and a 25% reduction in post-treatment tremor severity, we calculated that eight ET cases were required. A similar number of myoclonus patients would provide >80% power to detect a 25% reduction in the severity of post-treatment action myoclonus. Paired t tests were performed for scores pre- and post-treatment.

Take `O=C([O-])CCCO.[Na+]` [GHB, 4-hydroxybutanoic acid monosodium salt]: the Kinetic tremor score is recorded as 11.5 (0.011)* (1 gm, p 0.011*); 8.8 (0.006)** (1.5 gm, p 0.006**); 9.1 (0.006)** (2 gm, p 0.006**). Also, the Postural tremor score is 1.7 (0.029)* (1 gm, p 0.029*); 1.1 (0.001)** (1.5 gm, p 0.001**); 1.4 (0.006)** (2 gm, p 0.006**). Where the note is “ET, postural and kinetic tremor scores”, the “dose of maximal improvement” value amounted to 1.5 gm. In addition, for the setting “patient #15 (ET), after 1.5 gm”, the “time at which improvement in action tremor during pouring was evident” value is 45 min. In addition, for the setting “patient #15 (ET), after 1.5 gm”, the “time at which improvement in action tremor during pouring was obvious” value was 60 min. Further, the “kinetic tremor during tasks (drawing, sipping water from spoon)” value (patient #17 (ET), FIG. 4) is recorded as “Improvement in kinetic tremor during tasks was evident”.
